Where two headings read alike, the source gives them in different places.
Experiments:
[1] = Pharmacokinetic study in rats after oral administration of Z. nitidum decoction (HPLC-MS/MS); type: in vivo, Sprague–Dawley rats; conditions: for AUC(0-t) / AUC(0-inf) / Cmax / half-life / Tmax: Sprague-Dawley
Method: The HPLC analysis performed on a Surveyor plus HPLC system (Thermo Fisher Scientific, Waltham, MA, USA). The separation was executed by a Thermo Accucore aq C18 column (100 × 2.1 mm, 2.6 μm) (Thermo Fisher Scientific, Waltham, MA, USA) maintained at 30 °C. The mobile phase consisted of Solvent A (0.1% formic acid solution) and Solvent B (0.1% formic acid acetonitrile). The flow rate was 0.3 mL/min. The gradient program was as follows: 5–10% B at 0–5 min; 10–100% B at 5–15 min; 100–5% B at 15–15.1 min; 5% B at 15–20 min.
MS data were achieved on a triple-quadrupole mass spectrometer: TSQ Quantum Access (Thermo Fisher Scientific, Waltham, MA, USA) with electrospray ionization (ESI) source in positive mode. The instrument parameters were as follows: spray voltage at 3000 V, sheath gas and auxiliary gas with a flow of 30 and 5 arbitrary units, capillary temperature at 350 °C, collision gas pressure at 1.0 mTorr, skimmer offset at 2 V. The selected reaction monitoring (SRM) transitions used for MS analysis were as follows: m/z 342→297 for magnoflorine, 370→188 for α-allocryptopine, 260→227 for skimmianine, 356→192 for IS; the collision energies at 15 eV for magnoflorine, 30 eV for α-allocryptopine, skimmianine and IS. The data acquisition and processing was performed with Xcalibur 2.0 software (Thermo Fisher Scientific, Waltham, MA, USA).
100 μL plasma sample, 10 μL IS solution (200 ng/mL) and 300 μL acetonitrile were added to a 1.5 mL eppendorf tube and vortex-mixed for 5 min, then centrifuged at 13,000 (15,493× g) rpm for 10 min. The supernatant was transferred into another eppendorf tube and evaporated to dryness at 35 °C in vacuum using SpeedVac Concentration ((RVC 2-18, Christ). The residue was reconstituted in 100 μL acetonitrile and water (50:50, v/v) and centrifuged at 13,000 rpm (15,493× g) for 15 min.
For pharmacokinetic study, six rats were orally administered Z. nitidum decoction at a dose of 5.4 mL kg^−1 (5.4 mL decoction equal to 10.8 g crude drug) body weight. The blood samples were collected from orbital vein before dose and 0.17, 0.33, 0.67, 1, 2, 3, 4, 6, 8, 10, 12, and 24 after dose. The blood samples were then centrifuged at 3500 rpm (1274× g) for 15 min at 4 °C. The samples were stored at −80 °C. Data analysis was performed by Drug and Statistics (DAS) 2.0 software (Mathematical Pharmacology Professional Committee of China, Shanghai, China).

[2] = Stability of analytes in rat plasma under storage conditions; type: in vitro ADME
Method: The selectivity was assessed by analyzing the chromatograms of blank plasma of six different rats, a blank plasma with magnoflorine, α-allocryptopine, skimmianine and IS, and a plasma after dose. The linearity was determined by plotting the peak areas ratios (y) of each analyte to IS against the concentrations, and evaluated by least-squares linear regression. The lower limit of quantification (LLOQ) was defined as the lowest concentration point of the calibration curve (S/N > 10) with the accuracy within ±20% and precision lower than 20%. The accuracy and precision were evaluated by analyzing the six replicate QC samples on the same day (intra-day) and three consecutive days. The accuracy and precision were expressed as relative error (RE%) and relative standard deviation (RSD%), respectively. The extraction recovery was determined by comparing peak areas of the extracted QC samples with those of post-extracted spiked samples. The matrix effects was measured by calculated the analytes peak area ratios of post-extracted spiked samples to those of pure work solution. The stability was investigated by analyzing samples stability under diverse storage conditions: three freeze-thaw cycles, 8 h at 25 °C, −80 °C for 40 days and in autosampler for 24 h.

[3] = rats, oral Z. nitidum decoction

COc1ccc2c(c1O)-c1c(O)c(OC)cc3c1[C@H](C2)[N+](C)(C)CC3 [Magnoflorine, magnoflorine]
AUC(0-t) ([1]; rat plasma, oral Z. nitidum decoction 5.4 mL kg−1, Mean ± SD, n = 6, read-out: AUC0-t): 408 ± 91.3 ng·h/mL
AUC(0-inf) ([1]; rat plasma, oral Z. nitidum decoction 5.4 mL kg−1, Mean ± SD, n = 6, read-out: AUC0-∞): 438 ± 106 ng·h/mL
Cmax ([1]; rat plasma, oral Z. nitidum decoction 5.4 mL kg−1, Mean ± SD, n = 6, read-out: Cmax): 113 ± 18.8 ng/mL
half-life ([1]; rat plasma, oral Z. nitidum decoction 5.4 mL kg−1, Mean ± SD, n = 6, read-out: T1/2 (converted)): 194 ± 78.6 min
Tmax ([1]; rat plasma, oral Z. nitidum decoction 5.4 mL kg−1, Mean ± SD, n = 6, read-out: Tmax): 63 ± 42.6 min
Cmax compared with that of skimmianine [1, 3]: about ten times higher
total exposure AUC0–∞ compared among the three components (in words) [1, 3]: the largest
Stability, RE (%) ([2]; rat, 5 ng/mL): −10.00%
Stability, RE (%) ([2]; rat, 50 ng/mL): 11.03%
Stability, RE (%) ([2]; rat, 160 ng/mL): 9.16%
Stability, RE (%) ([2]; rat, 8 h, 5 ng/mL): −5.14%
Stability, RE (%) ([2]; rat, 8 h, 50 ng/mL): 6.87%
Stability, RE (%) ([2]; rat, 8 h, 160 ng/mL): 5.74%
Stability, RE (%) ([2]; rat, 24 h, 5 ng/mL): −5.59%
Stability, RE (%) ([2]; rat, 24 h, 50 ng/mL): 9.24%
Stability, RE (%) ([2]; rat, 24 h, 160 ng/mL): 4.61%
Stability, RE (%) ([2]; rat, 40 days, 5 ng/mL): 10.17%
Stability, RE (%) ([2]; rat, 40 days, 50 ng/mL): −8.92%
Stability, RE (%) ([2]; rat, 40 days, 160 ng/mL): 5.74%

COc1ccc2c(OC)c3ccoc3nc2c1OC [Skimmianine, skimmianine]
AUC(0-inf) ([1]; rat, in vivo, po): 17.1 ± 6.32 ng·h/mL
AUC(0-t) ([1]; rat, in vivo, po): 11.1 ± 2.02 ng·h/mL
Cmax ([1]; rat, in vivo, po): 8.91 ± 1.89 ng/mL
Tmax ([1]; rat, in vivo, po): 22.8 ± 7.2 min
half-life ([1]; rat, in vivo, po): 359 ± 97.2 min
Stability, RE (%) ([2]; rat, 1 ng/mL): 10.43%
Stability, RE (%) ([2]; rat, 10 ng/mL): −5.95%
Stability, RE (%) ([2]; rat, 32 ng/mL): −9.01%
Stability, RE (%) ([2]; rat, 8 h, 1 ng/mL): −9.41%
Stability, RE (%) ([2]; rat, 8 h, 10 ng/mL): 6.62%
Stability, RE (%) ([2]; rat, 8 h, 32 ng/mL): 9.51%
Stability, RE (%) ([2]; rat, 24 h, 1 ng/mL): 9.47%
Stability, RE (%) ([2]; rat, 24 h, 10 ng/mL): −4.39%
Stability, RE (%) ([2]; rat, 24 h, 32 ng/mL): −1.09%
Stability, RE (%) ([2]; rat, 40 days, 1 ng/mL): 9.69%
Stability, RE (%) ([2]; rat, 40 days, 10 ng/mL): −6.48%
Stability, RE (%) ([2]; rat, 40 days, 32 ng/mL): −4.07%

COc1ccc2c(c[n+](C)c3c4cc5c(cc4ccc23)OCO5)c1OC [chelerythrine]
absorption (in words) ([1]; preliminary experiment, rats, oral Z. nitidum decoction): poor absorption

COc1cc2c[n+](C)c3c4cc5c(cc4ccc3c2cc1OC)OCO5 [nitidine]
absorption (in words) ([1]; rat, in vivo, po): poor absorption

COc1ccc2c(c1OC)CN(C)CCc1cc3c(cc1C(=O)C2)OCO3 [α-allocryptopine]
AUC(0-t) ([1]; in vivo, rat plasma, oral Z. nitidum decoction 5.4 mL kg−1, Mean ± SD, n = 6, read-out: AUC0-t): 180 ± 96.3 ng·h/mL
AUC(0-inf) ([1]; in vivo, rat plasma, oral Z. nitidum decoction 5.4 mL kg−1, Mean ± SD, n = 6, read-out: AUC0-∞): 186 ± 98.7 ng·h/mL
Cmax ([1]; in vivo, rat plasma, oral Z. nitidum decoction 5.4 mL kg−1, Mean ± SD, n = 6, read-out: Cmax): 100 ± 49.9 ng/mL
half-life ([1]; in vivo, rat plasma, oral Z. nitidum decoction 5.4 mL kg−1, Mean ± SD, n = 6, read-out: T1/2 (converted)): 46.8 ± 10.2 min
Tmax ([1]; in vivo, rat plasma, oral Z. nitidum decoction 5.4 mL kg−1, Mean ± SD, n = 6, read-out: Tmax): 28.2 ± 7.8 min
Cmax compared with that of skimmianine [1, 3]: about ten times higher
Stability, RE (%) ([2]; rat plasma, 8 h at room temperature, 5 ng/mL, n = 6): 12.53%
Stability, RE (%) ([2]; rat plasma, 8 h at room temperature, 50 ng/mL, n = 6): −7.13%
Stability, RE (%) ([2]; rat plasma, 8 h at room temperature, 160 ng/mL, n = 6): 3.27%
Stability, RE (%) ([2]; rat plasma, 24 h at 4 °C, 5 ng/mL, n = 6): 2.99%
Stability, RE (%) ([2]; rat plasma, 24 h at 4 °C, 50 ng/mL, n = 6): −6.21%
Stability, RE (%) ([2]; rat plasma, 24 h at 4 °C, 160 ng/mL, n = 6): 7.75%
Stability, RE (%) ([2]; rat plasma, 40 days at −80 °C, 5 ng/mL, n = 6): 8.59%
Stability, RE (%) ([2]; rat plasma, 40 days at −80 °C, 50 ng/mL, n = 6): −4.82%
Stability, RE (%) ([2]; rat plasma, 40 days at −80 °C, 160 ng/mL, n = 6): −6.91%
Stability, RE (%) ([2]; rat plasma, three freeze-thaw cycle, 5 ng/mL, n = 6): 8.97%
Stability, RE (%) ([2]; rat plasma, three freeze-thaw cycle, 50 ng/mL, n = 6): −5.58%
Stability, RE (%) ([2]; rat plasma, three freeze-thaw cycle, 160 ng/mL, n = 6): 4.24%

— PMC6384758, “Profiling and Pharmacokinetic Studies of Alkaloids in Rats After Oral Administration of Zanthoxylum nitidum Decoction by UPLC-Q-TOF-MS/MS and HPLC-MS/MS” (Molecules, 2019)
